# Data taken from ChEMBL document CHEMBL1158733, “Iso-, nor-, and dinor-spiculoic acids A, polyketides from the marine sponge Plakortis zyggompha” (2005).
# Active and inactive are the calls of the source. The calls are words filed in the database; no cut-off is given here.
# Tests used:
# Format in all cases: functional
# [1] = system: HT-29; test: Cytotoxicity against human HT-29 cells SRB assay
# [2] = system: A549; test: Cytotoxicity against human A549 cells SRB assay
# [3] = system: MDA-MB-231; test: Cytotoxicity against human MDA-MB-231 cells SRB assay
Compound,Activity [1],Activity [2],Activity [3],GI50 [1] [µM],GI50 [2] [µM],GI50 [3] [µM]
CC[C@@]1(/C=C/c2ccccc2)C=C(C)[C@H]2[C@@H]([C@@H](C)C(=O)[C@@H]2C)[C@]1(CC)C(=O)O,inactive,inactive,inactive,–,–,–
CCC1=C[C@](/C=C/c2ccccc2)(CC)[C@@](CC)(C(=O)O)[C@H]2[C@H]1[C@@H](C)C(=O)[C@@H]2C [NOR-SPICULOIC ACID A],–,–,–,15,15,> 25
CCC1=C[C@](/C=C/c2ccccc2)(CC)[C@@](CC)(C(=O)O)[C@H]2[C@H]1[C@@H](CC)C(=O)[C@@H]2C [ISOSPICULOIC ACID A],–,–,–,15,15,> 25
